We go through one compound from US20250338851A1, “Boosted IPBC for Wet-State Bacterial Control” (Troy Technology II, Inc., priority 2021, published 2025).

Values joined by “and” are separate entries in the source; they are usually repeats but may differ in a detail not shown here. Equal values may be shown once. A value given as a limit tells only on which side of the number the result lay.

Holding throughout (format): cell-based
Experiment [1] has as its system Pseudomonas aeruginosa (ATCC #10145). Put plainly: Growth curves (OD600). The procedure:
To generate growth curves, overnight cultures of Pseudomonas aeruginosa (ATCC #10145) from Plate Count Agar were lifted and resuspended in dH2O and adjusted to OD600=0.01 with sterile Mueller Hinton Broth (MHB). This culture was distributed into wells of an uncovered 96-well plate with the indicated biocides. The OD600 was then measured initially and then every 30′ for 16 hours at 37° C. with constant double orbital shaking. Due to the opacity of the samples dosed with some test compounds, the curves were generated by background subtracting from wells containing sterile MHB and then subtracted from their initial (t=0) measurement.

Experiment [2] concerns E. aerogenes ATCC #13048. In words: Minimum inhibitory concentration testing (microbroth dilution) and synergy index. To be noted: Klebsiella aerogenes, ATCC13048; 96 well microbroth dilution, MHB, 24 hours of incubation; read-out: MIC. How it is done: (§1) MICs were determined via microbroth dilution using the following specific test parameters:
(§2) Biocide dilutions were performed in 2-fold increments for each assay.
(§3) Synergy index (SI) scores were calculated according to the mass action equation below: […]
(§4) S.I.[MIC[A]in-blend/MIC[A]alone]+[MIC[B]in-blend/MIC[B]alone]
(§5) Combinations of ingredients were determined to be synergistic (S.I.<0.5), additive (S.I.>0.5 to 1), indifferent (S.I.>1 to <2) or antagonistic (S.I.>2), as defined by EUCAST guidelines. See European Committee for Antimicrobial Susceptibility Testing (EUCAST) of the European Society of Clinical Microbiology and Infectious Diseases (ESCMID). EUCAST Definitive Document E.Def 1.2, May 2000: Terminology relating to methods for the determination of susceptibility of bacteria to antimicrobial agents, Clin. Microbiol. Infect. Off Publ. Eur. Soc. Clin. Microbiol. Infect. Dis. […] Microbiol.
(Dilution methods test growth across graded concentrations, often in twofold steps.)

Experiment [3] relates to E. coli ATCC #11229. Described as above. The conditions noted are these: Escherichia coli, ATCC11229; 96 well microbroth dilution, MHB, 24 hours of incubation; read-out: MIC. How it is done: as §1, §2, §3, §4, §5
Experiment [4] has as its system Microbacterium sp. Troy JZ13. The description is as above. To be noted: 96 well microbroth dilution, MHB, 24 hours of incubation; read-out: MIC. How it is done:
as §1, §2, §3, §4, §5

The subject of experiment [5] is P. aeruginosa ATCC #10145. The description is as above. The conditions noted are these: Pseudomonas aeruginosa, ATCC10145, 24 h. How it is done: as §1, §2, §3, §4, §5
Experiment [6] deals with Pseudomonas sp. Troy JZ103. The experiment is described as above. The conditions noted are these: Pseudomonas; 96 well microbroth dilution, MHB, 24 hours of incubation; read-out: MIC. How it is done: as §1, §2, §3, §4, §5
The test system of experiment [7] is S. aureus ATCC #6538. Described as above. To be noted: Staphylococcus aureus, ATCC6538; 96 well microbroth dilution, MHB, 24 hours of incubation; read-out: MIC. How it is done: as §1, §2, §3, §4, §5
Experiment [8] concerns Bacillus sp. Troy JZ14. Described as above. To be noted: Bacillus; 96 well microbroth dilution, MHB, 24 hours of incubation; read-out: MIC. The procedure: as §1
(§6) Necessary organism dilutions via OD600 were calculated based on OD600 of 1.0 being equivalent to 8×10^8 CFU/mL. Biocide dilutions were performed in 2-fold increments for each assay.
as §3, §4
(§7) Combinations of ingredients were determined to be synergistic (S.I.<0.5), additive (S.I.>0.5 to 1), indifferent (S.I.>1 to <2) or antagonistic (S.I.>2), as defined by EUCAST guidelines. See European Committee for Antimicrobial Susceptibility Testing (EUCAST) of the European Society of Clinical Microbiology and Infectious Diseases (ESCMID). EUCAST Definitive Document E.Def 1.2, May 2000: Terminology relating to methods for the determination of susceptibility of bacteria to antimicrobial agents, Clin. Microbiol. Infect. Off Publ. Eur. Soc. Clin. Microbiol. Infect. Dis. 6, 503-508 (2000); Helander I. M., Mattila-Sandholm T., Fluorometric assessment of gram-negative bacterial permeabilization, J. Appl. Microbiol. 88:213-219 (2000).

Experiment [9] relates to Burkholderia sp. Troy JZ2. Described as above. To be noted: Burkholderia, 24 h. The procedure: as §1, §6, §3, §4, §7
The test system of experiment [10] is Pseudomonas aeruginosa (ATCC #10145). In words: Checkerboard assay. The conditions noted are these: alone, 100-500 ppm; 24 hours of incubation. How it is done: The checkerboard assay was performed by separately dosing Polyphase PW40 (40% IPBC) and a 20% nanoparticle ZnO dispersion (Sigma #721077) into 100 microliters of Mueller Hinton Broth containing ˜1.0*10^5 CFU/mL of Pseudomonas aeruginosa (ATCC #10145). The plate was then incubated overnight at 37° C. with constant double orbital shaking. The next day, the dispersions were allowed to settle on the bench for 2 hours and the plate was photographed. Growth in this assay was defined as the turbidity of the supernatant.

The test system is the same in experiment [11]. Put plainly: Kill curve. The conditions noted are these: 0.2%. How it is done: Overnight cultures of Pseudomonas aeruginosa (ATCC #10145) growing in Tryptic Soy Broth were diluted to OD600=0.7 in Mueller Hinton Broth containing the indicated level of test compound. Samples containing IPBC were dosed with Polyphase PW40 (40% IPBC). Samples containing ZnO were dosed from a 50% ZnO dispersion (“1678-54”). Time points were collected by adding 1 mL of the sample into 9 mL of Dey-Engley Neutralizing Broth and performing a serial dilution in 1× Butterfield's Phosphate Buffer. Counts were obtained from pour plates in Tryptic Soy Agar after overnight incubation at 35° C.

For the compound `CCCCNC(=O)OCC#CI` [IPBC, 3-iodoprop-2-yn-1-yl butylcarbamate], the Pseudomonas growth entry was “complete growth inhibition” in experiment [1] (400 ppm IPBC (0.1% w/w Polyphase PW40) with ≥0.25 mM PAβN, 16 hours); “growth” in experiment [1] (400 ppm alone, 16 hours); “weaker IPBC potentiation” in [1] (IPBC with PAβN in the presence of 1 mM MgCl2); “no Pseudomonas inhibition” in [1] (control, without PAβN (FIG. 1C)). Further, the minimal inhibitory concentration (MIC) in experiment [2] was 1000 µg/mL; in experiment [3], 2400 µg/mL; in experiment [4], 11 µg/mL; in experiment [5] it was at least 400 µg/mL; in experiment [6], 300 µg/mL; in [7] it was 450 µg/mL. Further, the MIC in experiment [8] worked out at 9 µg/mL; in [9] it was 63 µg/mL. The “Turbidity of wells (growth)” value in experiment [10] is listed as “turbid”. Also, the “Kill curve CFU/mL” value in experiment [11] (0 hrs) is 5.40E+06 CFU/mL and 7.00E+06 CFU/mL; in [11] (2 hrs), 7.10E+06 CFU/mL and 7.30E+06 CFU/mL; in experiment [11] (24 hrs), 1.33E+10 CFU/mL and 1.45E+10 CFU/mL; in [11] (48 hrs) it was 4.90E+09 CFU/mL and 3.80E+09 CFU/mL.

The term MIC denotes the lowest concentration that inhibits growth of the organism.
